In the test the target is T1, T-p53C-Y220C (Homo sapiens, UniProt P04637, M133L/N239Y/N268D/V203A/Y220C).
T1 construct: For all other experiments, the DNA coding for residues 94-312 of T-p53C was inserted into a modified pET24a(+) vector; 6xHis tag + B. stearothermophilus dihydrolipoyl acetyltransferase lipoyl domain (aa 1-85) + TEV site (N, cleaved yes); made in house; host or cells: Escherichia coli BL21 (DE3) or C41 (DE3)
The test can be described thus: Thermal denaturation using fluorescence (Sypro Orange). It is filed as binding. Conditions: 10 μM protein. As to the method:
This was by an adaption of the classical procedure (e.g. ref A6). Thermal unfolding was monitored by the binding of the dye Sypro Orange (5×) using a Rotor-gene 6000 (Corbett Life Science) at 270 K/h in 25 mM NaPi, 150 mM NaCl and 5 mM DTT, pH 7.2 with a protein concentration of 10 μM.
(§1) Where listed, S.E. is the calculated standard error.
as §1

Molecules are shown by their SMILES.

As to `CCCN1CCN(CC(=O)Nc2ccc3c(c2)c2ccccc2n3CC)CC1` [PK126], for the setting “further compounds”, the “ΔTm (° C.)” value was determined as 0.23 °C. The same measure, in the same setting: to `CCn1cc(C(=O)NCc2cccc(NC(=O)C3CC3)c2)c2ccccc21` [PK312] belongs 0.15 °C; to `CCCn1cc(CCN)c2cc(OCC)ccc21` [PK408], 0.26 °C; to `CCOC(=O)c1c(C)n(C)c2ccc(O)cc12` [PK241], 0.2 °C. Still for that read-out and setting: to `COc1ccc2c(c1)c(C(=O)OCC(=O)Nc1cc(F)ccc1F)c(C)n2C1CC1` [PK310] belongs 0.36 °C; to `[2H]C(=O)OCC(=O)Nc1cc(C)on1` [PK264], 0.19 °C. On the same count and under the same terms, the result for `CNCc1ccc2c(c1)c1ccccc1n2CCS` [PK234] reads 0.28 °C. For the molecule `CCn1c2ccccc2c2cc(NC(=O)COC(=O)Cn3nc(C)c([N+](=O)[O-])c3C)ccc21` [PK118], the “ΔTm (° C.)” value (further compounds) stood at 0.28 °C. The same measure, in the same setting: to `CCn1c2ccccc2c2cc(CNCC(F)(F)F)ccc21` [PK230] belongs 0.4 °C. Same read-out and setting: to `[2H]C(=O)Nc1ccc(N2CCN(C)CC2)cc1C` [PK295] belongs 0.244 °C. Take `CCn1cc(C(=O)Nc2ccc(OC)cc2)c2ccccc21` [PK237]: the “ΔTm (° C.)” value (further compounds) came out at 0.2 °C.

Turning to `[2H]C(=O)N1CCc2[nH]c3ccccc3c2C1` [PK293], the “ΔTm (° C.)” value (further compounds) came to 0.3741 °C. For the molecule `CCn1c2ccccc2c2cc(NC(=O)CO)ccc21` [PK132], the “ΔTm (° C.)” value (further compounds) stood at 0.2 °C. The same measure, in the same setting: the result for `CCn1cc(C(=O)OCC(=O)c2ccc[nH]2)c2ccccc21` [PK279] reads 0.24 °C; that for `CCn1cc(C(=O)OCCOc2ccccc2C(C)=O)c2ccccc21` [PK309], 0.29 °C; that for `CNCc1ccc2c(c1)c1ccccc1n2CCCl` [PK229], 0.7 °C.

`CCn1c2ccccc2c2cc(CN(C)c3ccc4nnnn4n3)ccc21` [PK157]: the “ΔTm (° C.)” value (further compounds) turned out to be 0.12 °C.

For the molecule `CCn1c2ccccc2c2cc(CNCC(C)O)ccc21` (stereo not shown) [PK391], the “ΔTm (° C.)” value (further compounds) amounted to 0.66 °C. Consider `CCn1c2ccccc2c2cc(NC(=O)CN3CCC(C(N)=O)CC3)ccc21` [PK151], for which the “ΔTm (° C.)” value (further compounds) stood at 0.14 °C. On the same count and under the same terms, the result for `CCOC(=O)/C=C/C(=O)OCC(=O)Nc1ccc2c(c1)c1ccccc1n2CC` [PK113] reads 0.36 °C; that for `[2H]C(=O)OC(CC)C(=O)Nc1cc(C)on1` (stereo not shown) [PK284], 0.23 °C; that for `CCn1c2ccccc2c2cc(NC(=O)CN3C(=O)NC4(CCCC4)C3=O)ccc21` [PK116], 0.365 °C. As for `CCn1c2ccccc2c2cc(CNCCN3CCOCC3)ccc21` [PK208], the “ΔTm (° C.)” value (further compounds) turned out to be 0.35 °C. The same measure, in the same setting: to `[2H]C(=O)OC(C)C(=O)NC(N)=O` (stereo not shown) [PK263] belongs 0.06 °C; to `CCn1cc(C=C(C#N)C#N)c2ccccc21` [PK238], 0.2 °C; to `CCn1c2ccccc2c2cc(NC(=O)CN3C(=O)NC4(CCCCC4)C3=O)ccc21` [PK165], 0.24 °C. Consider `[2H]C(=O)OCC(=O)NC(=O)NC` [PK268], for which the “ΔTm (° C.)” value (further compounds) came to 0.31 °C. On the same count and under the same terms, to `CCn1c2ccccc2c2cc(CN3CCN(Cc4ccccc4C(F)(F)F)CC3)ccc21` [PK197] belongs 0.08 °C. For `COc1ccc2c(c1)c(C(=O)NC(C)C(C)C)c(C)n2C1CC1` (stereo not shown) [PK277], the “ΔTm (° C.)” value (further compounds) was found to be 0.34 °C. On the same count and under the same terms, to `COc1ccc2c(c1)c(C(=O)OC(C(N)=O)c1ccccc1)c(C)n2C1CC1` (stereo not shown) [PK294] belongs 0.064 °C.

For the molecule `CCOC(=O)c1c(C)n(C)c2ccc(OCCN(C)C)cc12` [PK250], under “further compounds”, the “ΔTm (° C.)” value is 0.14 °C.

As to `CCOC(=O)c1c(C)n(C2CC2)c2ccc(OC(=O)C3COc4ccccc4O3)cc12` (stereo not shown) [PK305], under “further compounds”, the “ΔTm (° C.)” value is 0.26 °C.

Turning to `CCOc1ccc2c(c1)c(CCN)cn2CC` [PK407], the “ΔTm (° C.)” value (further compounds) worked out at 0.29 °C. Same read-out and setting: the result for `[2H]C(=O)N1CCN(Cc2ccccc2)CC1` [PK285] reads 0.2 °C; that for `CNCc1ccc2c(c1)c1ccccc1n2CCBr` [PK232], 0.39 °C; that for `[2H]NNS(=O)(=O)c1ccc(OC(F)(F)F)cc1` [PK254], 0.43 °C.

For the molecule `CCn1c2ccccc2c2cc(CN3CCCN(C)CC3)ccc21` [PK175], the “ΔTm (° C.)” value (further compounds) amounted to 0.395 °C. The same measure, in the same setting: the result for `CCn1c2ccccc2c2cc(CN3CCN(Cc4cc(OC)ccc4O)CC3)ccc21` [PK202] reads 0.17 °C; that for `CCn1c2ccccc2c2cc(NC(=O)COC(=O)CNC(=O)c3ccc([N+](=O)[O-])cc3)ccc21` [PK108], 0.335 °C.

For `CCn1c2ccccc2c2cc(NC(=O)COc3ccc([N+](=O)[O-])nc3)ccc21` [PK163], the “ΔTm (° C.)” value is, setting by setting: (further compounds) 0.27 °C; (further studies on compounds described above) 0.24 °C. Turning to `CCn1c2ccccc2c2cc(NC(=O)CN(C)CC(=O)Nc3ccc(N4CCOCC4)cc3)ccc21` [PK122], the “ΔTm (° C.)” value (further compounds) was 0.28 °C. As for `CCn1c2ccccc2c2cc(NC(=O)COc3ccc(S(=O)(=O)N4CCOCC4)cc3)ccc21` [PK094], the “ΔTm (° C.)” value (further compounds) worked out at 0.195 °C. Still for that read-out and setting: the result for `CCn1cc(C(=O)CN2CCc3ccccc3C2)c2ccccc21` [PK212] reads 0.387 °C. Consider `CCn1cc(C(=O)O)c2ccccc21` [PK242], for which the “ΔTm (° C.)” value (further compounds) worked out at 0.16 °C.

Regarding `[2H]C(=O)N(C)Cc1nc2ccccc2c(=O)[nH]1` [PK315], the “ΔTm (° C.)” value (further compounds) was found to be 0.29 °C. Same read-out and setting: to `[2H]NNS(=O)(=O)c1cccc(C(F)(F)F)c1` [PK255] belongs 0.26 °C; to `[2H]C(=O)OCC(=O)NCC(F)(F)F` [PK258], 0.1 °C; to `CCn1c2ccccc2c2cc(CNCCNCCO)ccc21` [PK392], 0.70 °C.

For the molecule `CCn1c2ccccc2c2cc(CN(C)CC(O)c3ccccc3)ccc21` (stereo not shown) [PK186], the “ΔTm (° C.)” value (further compounds) was determined as 0.18 °C. On the same count and under the same terms, to `Cn1cc(NN)c2ccccc21` [PK253] belongs 0.093 °C. Same read-out and setting: the result for `[2H]C(=O)OCC(=O)NC(=O)NCC=C` [PK256] reads 0.1 °C.

With `CCn1cc(C(=O)OCc2nc(N)nc(Nc3ccccc3)n2)c2ccccc21` [PK301], the “ΔTm (° C.)” value (further compounds) was found to be 0.3 °C. The same measure, in the same setting: to `CCn1cc(C(=O)NC(c2cccc(F)c2)c2nccn2C)c2ccccc21` (stereo not shown) [PK317] belongs 0.09 °C; to `[2H]C(=O)Nc1cc(S(=O)(=O)N2CCN(C)CC2)ccc1OC` [PK280], 0.42 °C; to `[2H]NNS(=O)(=O)c1ccc(C(=O)OC)cc1` [PK281], 0.43 °C. Same read-out and setting: the result for `CCn1c2ccccc2c2cc(CN3CCCC(C4NC(=O)NC4C)C3)ccc21` (stereo not shown) [PK218] reads 0.31 °C. On the same count and under the same terms, the result for `CCOC(=O)c1c(C)n(CC)c2cc(Br)c(OC)cc12` [PK248] reads 0.21 °C.

With `CCn1cc(C(=O)NCc2cccc(NC(=O)C3CC3)c2)c2ccccc21` [PK307], under “further compounds”, the “ΔTm (° C.)” value came to 0.26 °C. On the same count and under the same terms, to `CCn1cc(C2CC3CN(C)C(=O)C34CCCN24)c2ccccc21` (stereo not shown) [PK222] belongs 0.14 °C. As for `[2H]C(=O)OCC(=O)NC(=O)NC1CCCC1` [PK269], the “ΔTm (° C.)” value (further compounds) worked out at 0.15 °C. On the same count and under the same terms, the result for `CCn1c2ccccc2c2cc(CN3CCOCC3)ccc21` [PK190] reads 0.15 °C; that for `CCn1cc(C(=O)OC(C)C(=O)Nc2cc(C)on2)c2ccccc21` (stereo not shown) [PK270], 0.11 °C. The same measure, in the same setting: the result for `CCn1cc(C(=O)OCC2CNC(=O)O2)c2ccccc21` (stereo not shown) [PK311] reads 0.15 °C.

Values taken from patent US20110059953A1, “COMPOUNDS FOR USE IN STABILIZING P53 MUTANTS” (priority 2008, published 2011).
